B1: PabD: C-terminally his-tagged fusion protein of GBS 6313 PabD (gbs0851) devoid of signal peptide (protein)
chain: DDNFEMPTRYVKMSEKSKAFYQRLQEKQRKAHTTVKTFNNSEIRHQLPLKQEKARNDIYNLGILISQESKGFIQRIDNAYSLENVSDIVNEAQALYKRNYDLFEKIKSTRDKVQVLLASHQDNTDLKNFYAELDDMYEHVYLNESRVEAINRNIQKYN
modifications: left off: small tags and cut ends
notes: C-terminally his-tagged fusion protein of GBS 6313 PabD (gbs0851) devoid of signal peptide

How the values were obtained:
[1] = Subcutaneous immunization of mice and probing of fusion proteins with mice sera; assay type: in vivo; settings: boost after three weeks, serum after six weeks, 1:1000 dilution
From the text: Serial dilutions of the fusion proteins PabA, PabB, and PabD were spotted onto nitrocellulose and probed with a 1:1000 dilution of the mice sera against the respective proteins. Bound antibodies were labelled with an anti-mouse-HRP conjugate and visualized by chemiluminescence.
To test, if the proteins PabA, PabB and PabD elicit an immune response in mice, purified PabA, PabB and PabD fusion protein was used for the subcutaneous immunization of mice. The mice were boosted after three weeks and serum was collected six weeks after the first immunization. Serial dilutions of the PabA, PabB, and PabD fusion proteins were blotted onto nitrocellulose and probed with the mice sera against the different proteins.

A549 cells [2] = assay: Interaction of protein-coated latex beads with A549 cells (scanning electron microscopy); assay type: cell-based, human
Procedure: BSA-coated latex beads were used as a control.
Latex beads were either coated with BSA (A) or FbsA fusion protein (B-D) and the interaction of the coated beads with the lung epithelial cell line A549 was analyzed by scanning electron microscopy.
Approximately […] latex beads (3 μm diameter, Sigma) were washed tree times in PBS and then coated with 300 μg of fusion protein or BSA in 500 μl PBS overnight at 4° C. Coated beads were washed once in PBS and then blocked with 200 μl of 10 mg/ml BSA in PBS for 1 h at room temperature. Beads were washed twice in PBS and once in RPMI+10% FCS and then resupended in 1 ml of RPMI+10% FCS. 300 μl of beads were added to approximately 4×10^5 A549 cells in 24-well plates. The cells were incubated for 1 h at 37° C. (5% CO2), washed five times with PBS and fixed in a solution containing 3% glutaraldehyde and 5% formaldehyde in cacodylate bluffer for 45 min on ice. The samples were washed with cacodylate buffer, dehydrated in a graded series of acetone and subjected to critical point drying with CO2. Samples were then coated with a 10 nm thick gold film and examined by scanning electron microscopy as described previously (Reinscheid et al., 2001a).
Approximately 1×10^9 latex beads (3 μm diameter, Sigma) were washed three times in 25 mM 2-N-morpholinoethanesulfonic acid (MES), pH 6.8. One half was resuspended in 1.0 ml MES buffer containing 500 μg/ml FbsA fusion protein and the remaining half was resuspended in 1.0 ml MES buffer. The beads were incubated overnight at 4° C. with end-over-end rotation. After pelleting of the beads by centrifugation, the amount of remaining protein in the supernatant was determined with a Bradford protein assay kit (BioRad). The beads were washed once with MES buffer and blocked for 1 h with 10 mg/ml BSA in MES buffer at room temperature. The beads were washed twice with MES buffer, once with RPMI+10% FCS, and resuspended in RPMI+10% FCS. Confluent A549 cells in 24-well plates were inoculated with 2×10^8 beads per well in a total volume of 1.0 ml. The bead monolayer mixtures were incubated for 2 h at 37° C. in a 5% CO2 atmosphere. Cells were washed five times with PBS and fixed with 3% paraformaldehyde and 4% glutaraldehyde in […] cacodylate buffer for scanning electron microscopy. Scanning electron microscopy was performed with a Zeiss DSM 962 microscope.

A549 cells [3] = assay: Epithelial cell adherence and internalization assay of GBS 6313 in presence of proteins; assay type: cell-based, human; settings: for adherence of GBS 6313 to A549 cells in the presence of fusion protein / invasion of A549 cells by GBS 6313 in the presence of fusion protein: 100 μg/ml fusion protein (FIG. 19)
Procedure: The adherence of GBS 6313 to A549 cells (A) and its internalization into these cells (B) was arbitrarily set to 100% and the results obtained in the presence of the different fusion proteins was related to these values. Each experiment was performed at least three times in triplicate.
Adherence of GBS to epithelial cells and internalization into epithelial cells was assayed essentially as described previously (Caparon et al., 1991; Rubens et al. 1992). Briefly, A549 cells were transferred to 24-well tissue culture plates at approximately 4×10^5 cells per well and cultivated overnight in RPMI (Gibco BRL) tissue culture medium, supplemented with 10% of fetal calf serum. After replacement of the medium with 1 ml of fresh medium, the cells were infected with 5×10^6 streptococci per well and incubated at 37° C. for 2 h. The non-adherent bacteria were removed by washing three times with PBS. In adherence assays, the epithelial cells were subsequently detached from the well by the addition of trypsin/EDTA and lysed by adding 300 μl of distilled water. Adherent bacteria were quantitated by plating serial dilutions of the lysate onto THY agar plates. For internalization assays the epithelial cells were incubated after 2 h of infection for another 2 h in tissue culture medium supplemented with penicilling G (10 U) and streptomycin (0.01 mg) to kill extracellular bacteria. After three washes with PBS, the epithelial cells were detached by the addition of trypsin/EDTA and lysed in 300 μl of distilled water. The amount of intracellular bacteria was quantified by plating serial dilutions of the lysate onto THY agar plates. Each experiment was repeated at least three times in triplicate. […]
Adherence of S. agalactiae to A549 and HEL299 cells and internalization into these cells was assayed essentially as described in Example 1 for A549 cells. In some experiments, A549 cells were preincubated with different amounts of FbsA protein or FbsA-derived peptides in RPMI medium for 30 min with three subsequent washes with PBS.

GBS strain 6313 = assay: Binding of radiolabelled human proteins to GBS; set-up: species or system Streptococcus agalactiae; settings: untreated bacteria
Procedure: Purified human fibrinogen was radiolabelled with ^125I, using the chloramin T method (Hunter and Greenwood, 1962). Binding of labelled fibrinogen to GBS was performed essentially as described by Chhatwal et al. (Chhatwal, Muller, and Blobel, 1983). Briefly, overnight cultures of GBS were pelleted by centrifugation, washed twice with phosphate-buffered saline supplemented with 0.02% Tween 20 (PBST) and adjusted photometrically to a transmission of 10% at 600 nm. A total of 0.2 ml of the bacterial suspension was added to 20 μl of ^125I-labelled fibrinogen containing 23 ng of fibrinogen. After incubation for 1 h at room temperature, the streptococci were sedimented by centrifugation and washed with 1 ml of PBST. The radioactivity of the pellet was finally measured in a gamma counter (Packard Instruments). The amount of bacterial-bound fibrinogen was calculated as the percentage of total radiolabelled fibrinogen added to the bacteria. In inhibition experiments, the binding of 23 ng of radiolabelled fibrinogen to 0.2 ml of GBS (T=10%) was determined in the presence of various amounts of FbsA fusion proteins, Bsp fusion protein or synthetic peptides. Each experiment was repeated at least three times in triplicate.
GBS strain 6313, belonging to serotype III, was tested in binding experiments for its interaction with radiolabelled human vitronectin, laminin, fibronectin, fibrinogen, and IgG. […]

[4] = 1 μg/ml of externally added fibrinogen
[5] = fibrinogen 0.1 μg/ml to 1.0 μg/ml, fibronectin 10 μg/ml, data not shown

Molecule | immune response in mice (detection of fusion protein by mice sera) [1] | binding of protein-coated latex beads to A549 cells (A549 cells [2]) | adherence of GBS 6313 to A549 cells in the presence of fusion protein (A549 cells [3]) | invasion of A549 cells by GBS 6313 in the presence of fusion protein (A549 cells [3]) | reduction of the adherence of GBS 6313 to A549 cells (A549 cells [3]; [4]) | reduction of the invasion of A549 cells by GBS 6313 (A549 cells [3]; [4]) | bacterial adherence to A549 cells after pre-incubation of S. agalactiae 6313 with protein (A549 cells [3]; [5]) | bacterial invasion of A549 cells after pre-incubation of S. agalactiae 6313 with protein (A549 cells [3]; [5]) | radiolabelled protein accumulated on the surface of GBS 6313 (of total) (GBS strain 6313)
PabA | high immunogenicity | significant binding | significantly reduced | significantly reduced |  |  |  |  | 
fibrinogen: purified human fibrinogen (Sigma), 330 kDa plasma glycoprotein [reference compound] |  |  |  |  | 90% | 90% | dose-dependent inhibition | dose-dependent inhibition | about 50%
B1 | high immunogenicity | significant binding | significantly reduced | significantly reduced |  |  |  |  | 

Reference: US7485710B2, “Nucleic acids coding for adhesion factor of group B streptococcus, adhesion factors of group B streptococcus and further uses thereof” (priority 2002, dated 2009)
